Laboratory results published in patent US4774320A, “Synthetic peptide with human interleukin 1 activity” (Sclavo S.p.A., priority 1986, dated 1988).

Experiments:
CTLL-2 cells = assay: Substances tested directly on IL-2-dependent CTLL cells (no splenocyte supernatant; upper part of Table 2); type: cell-based; details: dilution 1/10
[1] = test system: T cells from the spleen of C3H/HeJ mice; assay: Induction of IL-2 production in ConA-activated spleen T cells; supernatants tested for growth of IL-2-dependent CTLL-2 cells; type: cell-based; details: supernatants of splenocytes incubated 48 hours with ConA and substance, dilution 1/10
Description: For the purpose of establishing whether the activity of costimulation of the murine thymocytes on the part of the synthetic peptide is due, as in the case of human IL-1, to the induction of the production of IL-2, the following test was carried out.
T cells from the spleen of C3H/HeJ mice, separated on nylon wool as reported by Julius, M. H. et al., Eur. J. Immunol. 3, 645 (1973), are incubated in duplicate for 48 hours at 37° C. in 1 ml of RPMI 1640 medium (GIBCO), supplemented by N-2-hydroxyethylpiperazine N'-2-ethanesulphonic acid (HEPES), L-glutamine, gentamycin, 10% bovine foetal serum and 2-mercaptoethanol (2.5×10^-5 M), in the presence of graduated concentrations (840-420-210 μg/ml) of the synthetic peptide 163-171 and of purified human IL-1B as standard, with the addition of concanavalin A (ConA) as costimulant.
At the end of the period of incubation, the supernatant is separated from the culture and a determination is made of its capacity to promote the growth of CTLL-2 cells dependent upon IL-2 according to the method reported by Gillis S. M. et al. (J. Immunol. 120, 2027 (1978)).
The mitogenic activity of IL-2 on CTLL-2 cells is measured, either by determining the number of cells after 24 hours of culturing or by means of the assessment of the incorporation of tritiated thymidine in the cells. […]

## Human IL-1β: purified human IL-1B standard (Genzyme Boston Mass.)
CTLL-2 cells
  IL-2 (mU/ml): 1 mU/ml
  Stimulation index + SE of CTLL cells: 0.93 ± 0.02
[1]
  IL-2 (mU/ml): 38 mU/ml
  Stimulation index + SE of CTLL cells: 15.27 ± 0.88
